# Columns and labels:
# [1] = system: duck salad; assay: Test B flood test duck salad; assay type: in vivo, Heteranthera limosa
# In short: (§1)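 Plants were grown to the 2-leaf stage before treatment with test chemical, then held in a greenhouse for twelve to sixteen days. Injury was visually rated against untreated controls on a 0–10 scale, where 0 is no effect and 10 is complete control.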
# [2] = system: bedstraw; assay: Test B pre/postemergence bedstraw; assay type: in vivo, Galium aparine
# In short: (§2)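 Test chemicals in a non-phytotoxic solvent mixture with surfactant were sprayed preemergence onto planted seeds and postemergence onto plants 2 to 18 cm tall (1- to 4-leaf stage). After twelve to sixteen days in a greenhouse, injury was visually rated against untreated controls from 0 (no effect) to 10 (complete control).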
# [3] = system: soybean; assay: Test B pre/postemergence soybean; assay type: in vivo, Glycine max; details: for Soybean plant response rating: scale of 0 to 10 where 0 is no effect and 10 is complete control
# In short: as §2
# [4] = system: giant foxtail; assay: Test B pre/postemergence giant foxtail; assay type: in vivo, Setaria faberii; details: for Giant foxtail plant response rating: scale of 0 to 10 where 0 is no effect and 10 is complete control
# In short: as §2
# [5] = system: wheat; assay: Test B pre/postemergence wheat; assay type: in vivo, Triticum aestivum; details: for Wheat plant response rating: scale of 0 to 10 where 0 is no effect and 10 is complete control
# In short: as §2
# [6] = system: purple nutsedge; assay: Test B pre/postemergence purple nutsedge; assay type: in vivo, Cyperus rotundus; details: for Nutsedge plant response rating: scale of 0 to 10 where 0 is no effect and 10 is complete control
# In short: as §2
# [7] = system: wild oat; assay: Test B pre/postemergence wild oat; assay type: in vivo, Avena fatua; details: for Wild oats plant response rating: scale of 0 to 10 where 0 is no effect and 10 is complete control
# In short: as §2
# [8] = system: morningglory; assay: Test B pre/postemergence morningglory; assay type: in vivo, Ipomoea hederacea; details: for Morningglory plant response rating: scale of 0 to 10 where 0 is no effect and 10 is complete control
# In short: as §2
# [9] = system: blackgrass; assay: Test B pre/postemergence blackgrass; assay type: in vivo, Alopecurus myosuroides
# In short: as §2
# [10] = system: velvetleaf; assay: Test B pre/postemergence velvetleaf; assay type: in vivo, Abutilon theophrasti; details: for Velvetleaf plant response rating: scale of 0 to 10 where 0 is no effect and 10 is complete control
# In short: as §2
# [11] = system: crabgrass; assay: Test B pre/postemergence crabgrass; assay type: in vivo, Digitaria sanguinalis; details: for Crabgrass plant response rating: scale of 0 to 10 where 0 is no effect and 10 is complete control
# In short: as §2
# [12] = system: surinam grass; assay: Test B pre/postemergence surinam grass; assay type: in vivo, Brachiaria decumbens
# In short: as §2
# [13] = system: rape; assay: Test B pre/postemergence rape; assay type: in vivo, Brassica napus; details: for Rape plant response rating: scale of 0 to 10 where 0 is no effect and 10 is complete control
# In short: as §2
# [14] = system: rice; assay: Test B flood test rice; assay type: in vivo, Oryza sativa
# In short: as §1
# [15] = system: corn; assay: Test B pre/postemergence corn; assay type: in vivo, Zea mays; details: for Corn plant response rating: scale of 0 to 10 where 0 is no effect and 10 is complete control
# In short: as §2
# [16] = system: smallflower flatsedge; assay: Test B flood test smallflower flatsedge; assay type: in vivo, Cyperus difformis
# In short: as §1
# [17] = Postemergence (flood test), Rate 125 g/ha, scale 0 to 10, 0 is no effect, 10 is complete control
# [18] = Rate 62 g/ha, Postemergence (flood test species), scale of 0 to 10 where 0 is no effect and 10 is complete control
# [19] = Rate 500 g/ha, listed under Postemergence (flood test species), scale 0 to 10, 0 no effect, 10 complete control
# [20] = Postemergence, Rate 125 g/ha, scale 0 to 10, 0 is no effect, 10 is complete control
# [21] = Preemergence, Rate 62 g/ha, scale 0 to 10 (0 no effect, 10 complete control)
# [22] = Preemergence, Rate 250 g/ha, scale of 0 to 10 where 0 is no effect and 10 is complete control
# [23] = Preemergence, Rate 500 g/ha, scale of 0 to 10 where 0 is no effect and 10 is complete control
# [24] = Rate 62 g/ha, Postemergence, scale of 0 to 10 where 0 is no effect and 10 is complete control
# [25] = Rate 250 g/ha, Postemergence, scale of 0 to 10 where 0 is no effect and 10 is complete control
# [26] = Rate 500 g/ha, Postemergence, scale 0 to 10, 0 no effect, 10 complete control
smiles,measurement,setting,value
COCC(C)n1c(=O)on(C(=O)N(c2ccc(F)cc2F)C(C)C)c1=O (stereo not shown) [Compound 357],"Plant response rating, Ducksalad",[1]; [17],0
same,Ducksalad plant response rating,[1]; [18],0
same,"Plant response rating, Ducksalad",[1]; [19],2
same,"Plant response rating, Bedstraw",[2]; [20],0
same,"Plant response rating, Bedstraw",[2]; [21],10
same,Bedstraw plant response rating (0 to 10 scale),"[2]; Preemergence, Rate 125 g/ha",10
same,Bedstraw plant response rating,[2]; [22],10
same,Bedstraw plant response rating,[2]; [23],10
same,Bedstraw plant response rating,[2]; [24],0
same,"Plant response rating, Bedstraw",[2]; [25],0
same,"Plant response rating, Bedstraw",[2]; [26],5
same,"Plant response rating, Soybean",[3]; [20],2
same,"Plant response rating, Soybean",[3]; [21],0
same,Soybean plant response rating (0 to 10 scale),"[3]; Preemergence, Rate 125 g/ha",0
same,Soybean plant response rating,"[3]; Preemergence, Rate 250 g/ha",0
same,Soybean plant response rating,"[3]; Preemergence, Rate 500 g/ha",0
same,Soybean plant response rating,"[3]; Rate 62 g/ha, Postemergence",2
same,"Plant response rating, Soybean",[3]; [26],3
same,"Plant response rating, Giant foxtail",[4]; [20],8
same,"Plant response rating, Giant foxtail",[4]; [21],10
same,Giant foxtail plant response rating (0 to 10 scale),"[4]; Preemergence, Rate 125 g/ha",10
same,Giant foxtail plant response rating,"[4]; Preemergence, Rate 250 g/ha",10
same,Giant foxtail plant response rating,"[4]; Preemergence, Rate 500 g/ha",10
same,Giant foxtail plant response rating,"[4]; Rate 62 g/ha, Postemergence",8
same,"Plant response rating, Giant foxtail",[4]; [26],9
same,"Plant response rating, Wheat",[5]; [20],5
same,"Plant response rating, Wheat",[5]; [21],4
same,Wheat plant response rating (0 to 10 scale),"[5]; Preemergence, Rate 125 g/ha",6
same,Wheat plant response rating,"[5]; Preemergence, Rate 250 g/ha",9
same,Wheat plant response rating,"[5]; Preemergence, Rate 500 g/ha",9
same,Wheat plant response rating,"[5]; Rate 62 g/ha, Postemergence",4
same,"Plant response rating, Wheat",[5]; [26],7
same,"Plant response rating, Nutsedge",[6]; [20],0
same,"Plant response rating, Nutsedge",[6]; [21],0
same,Nutsedge plant response rating (0 to 10 scale),"[6]; Preemergence, Rate 125 g/ha",0
same,Nutsedge plant response rating,"[6]; Preemergence, Rate 250 g/ha",0
same,Nutsedge plant response rating,"[6]; Preemergence, Rate 500 g/ha",6
same,Nutsedge plant response rating,"[6]; Rate 62 g/ha, Postemergence",0
same,"Plant response rating, Nutsedge",[6]; [26],2
same,"Plant response rating, Wild oats",[7]; [20],4
same,"Plant response rating, Wild oats",[7]; [21],9
same,Wild oats plant response rating (0 to 10 scale),"[7]; Preemergence, Rate 125 g/ha",10
same,Wild oats plant response rating,"[7]; Preemergence, Rate 250 g/ha",10
same,Wild oats plant response rating,"[7]; Preemergence, Rate 500 g/ha",10
same,Wild oats plant response rating,"[7]; Rate 62 g/ha, Postemergence",3
same,"Plant response rating, Wild oats",[7]; [26],6
same,"Plant response rating, Morningglory",[8]; [20],2
same,"Plant response rating, Morningglory",[8]; [21],0
same,Morningglory plant response rating (0 to 10 scale),"[8]; Preemergence, Rate 125 g/ha",2
same,Morningglory plant response rating,"[8]; Preemergence, Rate 250 g/ha",2
same,Morningglory plant response rating,"[8]; Preemergence, Rate 500 g/ha",7
same,Morningglory plant response rating,"[8]; Rate 62 g/ha, Postemergence",2
same,"Plant response rating, Morningglory",[8]; [26],8
same,"Plant response rating, Blackgrass",[9]; [20],6
same,"Plant response rating, Blackgrass",[9]; [21],7
same,Blackgrass plant response rating (0 to 10 scale),"[9]; Preemergence, Rate 125 g/ha",8
same,Blackgrass plant response rating,[9]; [22],9
same,Blackgrass plant response rating,[9]; [23],10
same,Blackgrass plant response rating,[9]; [24],3
same,"Plant response rating, Blackgrass",[9]; [25],6
same,"Plant response rating, Blackgrass",[9]; [26],7
same,"Plant response rating, Velvetleaf",[10]; [20],2
same,"Plant response rating, Velvetleaf",[10]; [21],4
same,Velvetleaf plant response rating (0 to 10 scale),"[10]; Preemergence, Rate 125 g/ha",5
same,Velvetleaf plant response rating,"[10]; Preemergence, Rate 250 g/ha",5
same,Velvetleaf plant response rating,"[10]; Preemergence, Rate 500 g/ha",7
same,Velvetleaf plant response rating,"[10]; Rate 62 g/ha, Postemergence",2
same,"Plant response rating, Velvetleaf",[10]; [26],4
same,"Plant response rating, Crabgrass",[11]; [20],2
same,"Plant response rating, Crabgrass",[11]; [21],9
same,Crabgrass plant response rating (0 to 10 scale),"[11]; Preemergence, Rate 125 g/ha",9
same,Crabgrass plant response rating,"[11]; Preemergence, Rate 250 g/ha",9
same,Crabgrass plant response rating,"[11]; Preemergence, Rate 500 g/ha",10
same,Crabgrass plant response rating,"[11]; Rate 62 g/ha, Postemergence",2
same,"Plant response rating, Crabgrass",[11]; [26],5
same,"Plant response rating, B. signalgrass",[12]; [20],0
same,"Plant response rating, B. signalgrass",[12]; [21],1
same,"B. signalgrass plant response rating (0 to 10 scale, 0 is no effect, 10 is complete control)","[12]; Preemergence, Rate 125 g/ha",3
same,B. signalgrass plant response rating,[12]; [22],6
same,B. signalgrass plant response rating,[12]; [23],7
same,B. signalgrass plant response rating,[12]; [24],0
same,"Plant response rating, B. signalgrass",[12]; [25],4
same,"Plant response rating, B. signalgrass",[12]; [26],7
same,"Plant response rating, Rape",[13]; [20],0
same,"Plant response rating, Rape",[13]; [21],0
same,Rape plant response rating (0 to 10 scale),"[13]; Preemergence, Rate 125 g/ha",2
same,Rape plant response rating,"[13]; Preemergence, Rate 250 g/ha",8
same,Rape plant response rating,"[13]; Preemergence, Rate 500 g/ha",8
same,Rape plant response rating,"[13]; Rate 62 g/ha, Postemergence",0
same,"Plant response rating, Rape",[13]; [26],4
same,"Plant response rating, Rice",[14]; [17],0
same,Rice plant response rating,[14]; [18],0
same,"Plant response rating, Rice",[14]; [19],2
same,"Plant response rating, Corn",[15]; [20],0
same,"Plant response rating, Corn",[15]; [21],0
same,Corn plant response rating (0 to 10 scale),"[15]; Preemergence, Rate 125 g/ha",0
same,Corn plant response rating,"[15]; Preemergence, Rate 250 g/ha",6
same,Corn plant response rating,"[15]; Preemergence, Rate 500 g/ha",9
same,Corn plant response rating,"[15]; Rate 62 g/ha, Postemergence",0
same,"Plant response rating, Corn",[15]; [26],3
same,"Plant response rating, S. Flatsedge",[16]; [17],0
same,S. Flatsedge plant response rating,[16]; [18],0
same,"Plant response rating, S. Flatsedge",[16]; [19],8

# Source: patent publication US6737383B1, “Herbicidal oxadiazolidines” (priority 1999, dated 2004)
